We go through one compound from US11401243B2, “Quinoline derived small molecule inhibitors of nicotinamide N-methyltransferase (NNMT) and uses thereof” (priority 2017, dated 2022).

In data set [1] the test system is 3T3-L1 pre-adipocytes cells. Briefly: MTT cell viability assay. The data set is classed as cell-based. How it is done:
Cells were treated for 24 h with 0.1-600 μM NNMT inhibitors in cell culture media. A 24 h time point was chosen based on a previous report of using this time period for transfecting or treating 3T3-L1 cells with NNMT anti-sense oligonucleotides or a small molecule NNMT product inhibitor (1-MNA), respectively, for phenotypic measures. MTT (3-(4,5-dimethylthiazol-2-yl)-2,5-diphenyltetrazolium bromide) (ATCC; Manassas, Va., USA) was added to each well and assayed according to the manufacturer's instructions. Absorbance corresponding to the amount of formazan dye produced by treated cells was normalized to that produced by control (untreated) cells to calculate % viable cells in the treated samples.
On the technique in general: Formazan colour is commonly taken as a measure of viable cells.

Data set [2] has as its system differentiating 3T3-L1 cells. Nature of the data set: Adipocyte differentiation / lipogenesis quantitated with oil red O staining. Format: cell-based. Particulars: for reduction of lipogenesis compared to control untreated adipocytes: oil red O. How it is done:
On day 9 post-differentiation, cells were subjected to quantitative oil red O (Thermo Fisher Scientific; Waltham, Mass., USA) staining as adapted and modified from published protocols. Briefly, cells were washed twice with PBS, fixed with 10% formalin for 30 min at room temperature, and stained with oil red O working solution (˜0.2% oil red O in 99% isopropanol) for 30 min. Cells were then washed five times or with sterile water until unincorporated oil red O stain was completely removed. Images of oil red O staining in control and inhibitor-treated cells were digitally photographed using a light microscope (Olympus BX41; Tokyo, Japan). After image capture, 2-propanol (3.5 mL) was added to each dish for 10 min to dissolve the oil red O stain and absorbance was quantified in a plate reader set at 492 nm wavelength. To ensure the absorbance from oil red O staining was within the linear detection range of the plate reader, a calibration curve was established for oil red O staining in adipocytes using a previously described protocol.

Data set [3] deals with recombinant human DNMT1 enzyme (Homo sapiens, UniProt P26358). Briefly: DNMT1 activity assay (radiometric). Format: biochemical.
Data set [4] has as its system differentiated adipocytes (3T3 cells). Briefly: Quantitative measurement of selected metabolites (NA, SAM, SAH, NAD+) in cultured cells. Format: cell-based. How it is done: Sample processing was performed as described above.
Data set [5] deals with NNMT activity in 3T3-L1 pre-adipocytes and differentiated adipocytes. Nature of the data set: Quantitative measurement of NNMT reaction product 1-MNA in cultured cells (LC/MS/MS). The data set is classed as cell-based. The note with it: for intracellular levels of 1-MNA: 30 μM. How it is done:
Differentiation of 3T3-L1 pre-adipocytes. […] Briefly, standard culture media was supplemented with scheduled addition of adipogenic agents [3-isobutyl-1methyl xanthine (IBMX), Sigma Aldrich; MO, USA), dexamethasone (Sigma Aldrich; MO, USA), insulin (Gibco Life Technologies Inc.; Grand Island, N.Y., USA)] over 10 days to promote differentiation of 3T3-L1 fibroblasts into adipocytes; a combination of 1 mM IBMX, 1 μM dexamethasone, and 10 μg/ml of insulin in media were added to fully confluent 3T3-L1 fibroblasts for three days (days 0-3) to initiate differentiation. At day 3, the media was replaced with culture media supplemented with insulin (10 μg/ml). After day 6, cells were maintained in culture media until described experiments were begun (days 8-10).
Cellular 1-MNA concentrations were determined using an ultra-sensitive high-resolution AB Sciex 6500 Q-trap mass spectrometer coupled to an Agilent 1260 ultra-high pressure liquid chromatography (LC/MS/MS) system. Using multiple reaction monitoring (MRM) positive ion mode, the 1-MNA NNMT reaction product was quantified from peak area ratios using AB Sciex Analyst and MultiQuant 2.1 software and the parent precursor and Q3 masses set to m/z 137.1 and 94.1, respectively. Fragment ions at m/z of 92.1 and 77.9 were additionally used for the detection and confirmation of 1-MNA, respectively. […]. To determine the effect of NNMT inhibitor on NNMT activity in the pre-adipocytes and differentiated adipocytes (8×10^4 cells/well seeded prior to beginning differentiation), cells were treated with 30 μM inhibitor for 24 h. Similarly, to compare the relative effects of multiple NNMT inhibitors on NNMT activity in cultured adipocytes, differentiated adipocytes in 6-well plates were treated with 10 μM test compound for 24 h. Following treatment, media was replaced with 80% (v/v) methanol (cooled to −80° C.) containing 500 nmol 6-chloronicotinamide (6-CN) as an internal standard (IS) to extract cellular metabolites. Adherent cells were scrapped, then centrifuged at 4° C. and 13000 g for 15 min, and the resulting supernatants processed using established protocols. […]. Data were subsequently normalized to the IS peak area and transformed as % control values for cross-sample comparisons. […] Choice of inhibitor concentrations and time period was chosen based on the results from the MTT studies.

Chain of recombinant human DNMT1 enzyme (P26358 whole entry): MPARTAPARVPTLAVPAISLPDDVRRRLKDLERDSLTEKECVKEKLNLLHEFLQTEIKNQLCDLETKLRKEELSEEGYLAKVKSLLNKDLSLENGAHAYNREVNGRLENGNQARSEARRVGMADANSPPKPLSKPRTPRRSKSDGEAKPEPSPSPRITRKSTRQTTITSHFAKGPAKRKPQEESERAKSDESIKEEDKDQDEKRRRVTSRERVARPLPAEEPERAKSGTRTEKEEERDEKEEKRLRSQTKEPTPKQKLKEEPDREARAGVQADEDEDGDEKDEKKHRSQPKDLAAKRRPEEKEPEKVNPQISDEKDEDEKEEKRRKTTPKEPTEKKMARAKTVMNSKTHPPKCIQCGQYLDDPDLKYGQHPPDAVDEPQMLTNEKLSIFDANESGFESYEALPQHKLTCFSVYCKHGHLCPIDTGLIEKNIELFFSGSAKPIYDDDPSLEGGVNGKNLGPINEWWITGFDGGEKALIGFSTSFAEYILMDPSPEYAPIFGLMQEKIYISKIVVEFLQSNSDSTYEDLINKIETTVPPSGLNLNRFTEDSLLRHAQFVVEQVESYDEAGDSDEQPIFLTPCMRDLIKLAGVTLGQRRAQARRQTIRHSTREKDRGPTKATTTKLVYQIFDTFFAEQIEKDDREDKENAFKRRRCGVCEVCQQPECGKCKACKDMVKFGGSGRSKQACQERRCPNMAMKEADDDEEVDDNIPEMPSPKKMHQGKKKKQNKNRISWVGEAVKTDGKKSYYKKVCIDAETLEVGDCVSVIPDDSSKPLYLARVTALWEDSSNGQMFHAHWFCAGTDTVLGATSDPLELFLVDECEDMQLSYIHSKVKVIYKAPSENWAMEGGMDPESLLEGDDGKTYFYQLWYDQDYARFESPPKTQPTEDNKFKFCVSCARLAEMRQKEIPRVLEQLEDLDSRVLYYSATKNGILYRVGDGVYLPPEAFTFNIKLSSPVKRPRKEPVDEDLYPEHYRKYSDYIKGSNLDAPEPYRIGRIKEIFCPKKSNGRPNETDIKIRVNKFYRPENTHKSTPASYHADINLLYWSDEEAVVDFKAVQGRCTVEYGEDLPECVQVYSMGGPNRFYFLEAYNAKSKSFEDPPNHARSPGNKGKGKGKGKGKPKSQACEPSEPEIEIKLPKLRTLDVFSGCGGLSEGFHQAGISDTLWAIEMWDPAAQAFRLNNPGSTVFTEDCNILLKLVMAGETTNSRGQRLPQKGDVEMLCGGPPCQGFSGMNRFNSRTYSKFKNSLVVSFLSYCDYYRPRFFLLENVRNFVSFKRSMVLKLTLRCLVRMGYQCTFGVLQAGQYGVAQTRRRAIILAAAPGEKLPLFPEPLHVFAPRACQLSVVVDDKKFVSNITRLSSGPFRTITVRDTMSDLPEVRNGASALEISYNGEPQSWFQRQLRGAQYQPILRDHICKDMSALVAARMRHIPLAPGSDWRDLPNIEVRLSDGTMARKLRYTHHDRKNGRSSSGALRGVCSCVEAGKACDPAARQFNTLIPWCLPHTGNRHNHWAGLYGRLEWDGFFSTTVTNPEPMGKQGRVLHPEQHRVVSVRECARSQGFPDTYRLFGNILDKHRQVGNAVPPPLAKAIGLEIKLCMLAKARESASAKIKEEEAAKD

A word on the IC50: it is the concentration needed to halve the response being measured. By EC50 is commonly meant the concentration at which the effect is half-maximal. With `C[n+]1cccc2c(N)cccc21` [1j, 5-amino-1-methylquinolin-1-ium iodide], the cell viability entry in data set [1] (3T3-L1 pre-adipocytes, 10 μM, 24 h) is recorded as “did not impact cell viability”. In data set [1] (3T3-L1 pre-adipocytes, 600 μM (highest concentration tested), 24 h), the cytotoxicity was roughly 40%. The “cytotoxicity relative to untreated cells” value in data set [1] (3T3-L1 pre-adipocytes, 100-300 μM, 24 h) is on record as “modest cytotoxicity”. Further, the “3T3-L1 cell viability compared to untreated” value in data set [1] (highest tested concentration (0.1-60 μM range)) is “only slightly reduced”. The “reduction of lipogenesis compared to control untreated adipocytes” value in data set [2] (30 μM) worked out at 50%; in data set [2] (60 μM), 70%. The “lipid accumulation in differentiating pre-adipocytes (in words)” value in data set [2] (15, 30, 60 μM) is recorded as “concentration-dependent inhibition of lipid accumulation”. For the same compound, the “inhibition of DNMT1 (in words)” value in data set [3] (10 nM to 200 μM (1,8-diMQ) or 600 μM (5-amino-1MQ)) is “did not inhibit”. Besides, the IC50 in data set [3] (NI: no inhibition, read-out: IC50, DNA (cytosine-5)-methyltransferase 1) was greater than 200 µM. In addition, the “NAD+ levels vs. control” value in data set [4] (10 μM) was “significant increase”. For the same compound, the “intracellular SAM levels relative to control adipocytes” value in data set [4] (30 μM) is on record as “significant increase”. Besides, the “increase in NAD+ levels relative to control adipocytes” value in data set [4] (1-60 μM) is listed as 1.2-1.6 fold. Moreover, the “intracellular levels of NA” value in data set [4] (one-way ANOVA) is given as “no statistically significant main effect”. Also, the “intracellular levels of SAH” value in data set [4] (one-way ANOVA) is “no statistically significant main effect”. The “1-MNA levels in differentiated adipocytes relative to control” value in data set [5] (10 μM, 24 h) was “significantly decreased”. Also, in data set [5] (Mus musculus, 3T3-L1, 24 h, 0.3-60 μM, 3-parameter sigmoidal fit, read-out: EC50 for inhibition of NNMT (intracellular 1-MNA) in fully differentiated adipocytes), the EC50 was 2.3 µM. Besides, the “intracellular levels of 1-MNA” value in data set [5] (adipocytes, 24 h) was “significant reduction”; in data set [5] (pre-adipocytes, 24 h), “significant reduction”. Besides, the “relative intracellular 1-MNA levels, % of level in untreated adipocytes” value in data set [5] (inhibitor concentrations 10-60 μM) was roughly 40%.
